Results from patent US20260224714A1, “CYCLING LYSOSOMAL TARGETING ANTIBODY CONJUGATES” (Lycia Therapeutics, Inc., priority 2023, published 2026).

Assays:
Type in all cases: cell-based
[1] = system: Alexa Fluor647 labelled human IgE; experiment: Uptake assay: internalization of Alexa Fluor 647 labelled IgE in wild type HepG2 cells (Example 6); settings: equimolar conjugate and AF647 IgE, 2 hours, median cellular AF647 intensity by flow cytometry, normalized to unconjugated parent protein
In short: (§1)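 HepG2 cells (wild type or ASGPR1/2 KO) pre-blocked with Fc receptor blocker, then exposed 2 h to conjugate precomplexed equimolar with AF647-labelled human IgE (30 min, room temperature) at 300 nM to 1.23 nM final. Median cellular AF647 by flow cytometry, normalized to unconjugated parent protein.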

[2] = system: LysoLight-labelled human IgE; experiment: Lysosomal degradation of LysoLight-labelled IgE in HepG2 cells, live cell imaging (Example 7); settings: equimolar conjugate:LysoLight IgE, area under the curve of deep red fluorescence over three days, normalized to unconjugated parent protein
In short: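 Conjugate precomplexed 30 min at room temperature with equimolar LysoLight-labelled human IgE, added to Fc-receptor-blocked HepG2 cells at final 100–1.23 nM. Red fluorescence, released on lysosomal cathepsin cleavage, imaged hourly for 72 h starting 1 h post-addition; area under the fluorescence–time curve taken as total degradation.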

recombinant IgE = experiment: Degradation of super-stoichiometric levels of target in HepG2 cells (Example 13, Table 31); settings: 1 nM conjugate and 25 nM IgE for three days, (A-B)/C IgE depleted relative to conjugate, average of two replicate wells
In short: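 HepG2 cells in EMEM/10% FBS were incubated with 1 nM conjugate plus 25 nM recombinant IgE for 72 h. IgE in medium at start and end quantified by MSD/ELISA-type assay; value is molar equivalents IgE depleted per conjugate, (initial − day-3 IgE)/conjugate concentration, mean of two wells.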

[3] = system: Alexa Fluor647 labelled human IgE; experiment: Uptake assay: internalization of Alexa Fluor 647 labelled IgE in ASGPR1/2 KO HepG2 cells (Example 6); settings: equimolar conjugate and AF647 IgE, normalized to unconjugated parent protein
In short: as §1

HepG2 cells = experiment: Externalization of conjugates from a cell following internalization (cycling), high-throughput format (Example 11); settings: 50 nM conjugate 1 hour, stringent washes, Alexa Fluor 647-labelled a-human IgG 1 hour, FACS, normalized to unconjugated parent protein, average of two replicate wells
In short: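 25,000 HepG2 cells incubated with conjugate for 1 h at indicated concentrations, then chilled and washed (DPBS, pH 5.2 acetate, pH 2.5 EBSS) to strip surface conjugate. Recycled conjugate captured by 1 μg/ml AF647 anti-human IgG in 37 °C EMEM for 1 h; median AF647 by flow cytometry, mean of two wells.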

human IgE = experiment: Degradation of initial and subsequent dose of target in HepG2 cells (Example 12, Table 30); settings: normalized to unconjugated; for Normalized Fluorescence Post Wash Median Green: after wash, probe-conjugated IgE added for 4 hours, subsequent dose of target; for Normalized Fluorescence Precomplex Median Deep Red: precomplexed equimolar conjugate:IgE (cathepsin-cleavable quenched fluorescent probe) added for 2 hours, initial dose of target
In short: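 HepG2 cells exposed 2 h to conjugate precomplexed (30 min, 37 °C, equimolar) with 647-quenched-probe human IgE, acid/ice washed, then given 488-probe IgE without conjugate for 4 h. Median 647 (initial) and 488 (recycled) fluorescence by flow cytometry, normalised to unconjugated parent; mean of two wells.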

Row | SMILES | Normalized Fluorescence 3.7 nM WT [1] | Normalized Fluorescence 100 nM WT [1] | Normalized Fluorescence 3.7 nM [2] | Normalized Fluorescence 100 nM [2] | Average Degradation (Molar equivalents) (recombinant IgE) | Normalized Fluorescence 100 nM ASGPR KO [3] | Normalized Fluorescence (HepG2 cells) | Normalized Fluorescence Post Wash Median Green (human IgE) | Normalized Fluorescence Precomplex Median Deep Red (human IgE)
1 | CC(=O)N[C@@H]1[C@@H](O)[C@@H](O)[C@@H](CO)O[C@@H]1CCCOCCOCCNC(=O)NCCCC(C)(CCCNC(=O)NCCOCCOCCC[C@H]1O[C@H](CO)[C@H](O)[C@H](O)[C@H]1NC(C)=O)NC(=O)NCCOCCOCCOCCNC(=O)CBr (stereo partly drawn) [Compound 2320] | 37.7 | 224.4 | 6.4 | 2.7 | 0.5 | 1.1 | 24.1 | 2.7 | 3.2
2 | O=C(CCOCCOCCOCCNS(=O)(=O)c1ccc(N2C(=O)C=CC2=O)cc1)NC(CCCNC(=O)NCCOCCOCCOC[C@H]1CN([C@H]2CO[C@H](CO)[C@H](O)[C@@H]2O)C(=O)O1)(CCCNC(=O)NCCOCCOCCOC[C@H]1CN([C@H]2CO[C@H](CO)[C@H](O)[C@@H]2O)C(=O)O1)CCCNC(=O)NCCOCCOCCOC[C@H]1CN([C@H]2CO[C@H](CO)[C@H](O)[C@@H]2O)C(=O)O1 [Compound 2324] | 39.2 | 207.4 | 5.8 | 2.6 | 5.2 | 1.2 | 32.2 | 2.9 | 3.2
3 | CC(=O)N[C@@H]1[C@@H](O)[C@@H](O)[C@@H](CO)O[C@@H]1CCCOCCOCCNC(=O)NCCCC(CCCNC(=O)NCCOCCOCCC[C@H]1O[C@H](CO)[C@H](O)[C@H](O)[C@H]1NC(C)=O)(CCCNC(=O)NCCOCCOCCC[C@H]1O[C@H](CO)[C@H](O)[C@H](O)[C@H]1NC(C)=O)NC(=O)NCCOCCOCCOCCN(C)C(=O)CBr [Compound 2316] | 68.4 | 314.3 | 13.4 | 3.7 | 5.7 | 1.1 | 45.7 | 3.5 | 3.8
4 | O=C(CCOCCOCCOCCNS(=O)(=O)c1ccc(N2C(=O)C=CC2=O)cc1)NC(CCCNC(=O)NCCOCCOCCOCc1csc(N[C@H]2CO[C@H](CO)[C@H](O)[C@@H]2O)n1)(CCCNC(=O)NCCOCCOCCOCc1csc(N[C@H]2CO[C@H](CO)[C@H](O)[C@@H]2O)n1)CCCNC(=O)NCCOCCOCCOCc1csc(N[C@H]2CO[C@H](CO)[C@H](O)[C@@H]2O)n1 [Compound 2310] | 30.3 | 127.9 | 4.3 | 2.4 | 4.0 | 1.1 | 16.6 | 2.0 | 2.3
5 | CC(=O)N[C@@H]1[C@@H](O)[C@@H](O)[C@@H](CO)O[C@@H]1CCCOCCOCCNC(=O)NCCCC(C)(CCCNC(=O)NCCOCCOCCC[C@H]1O[C@H](CO)[C@H](O)[C@H](O)[C@H]1NC(C)=O)NC(=O)NCCOCCOCCOCCNC(=O)c1ccc(N2C(=O)C=CC2=O)cc1 (stereo partly drawn) [Compound 2318, N,N′-((2R,2′R,3R,3′R,4R,4′R,5R,5′R,6R,6′R)-(16-(3-(1-(4-(2,5-dioxo-2,5-dihydro-1H-pyrrol-1-yl)phenyl)-1-oxo-5,8,11-trioxa-2-azatridecan-13-yl)ureido)-16-methyl-11,21-dioxo-4,7,25,28-tetraoxa-10,12,20,22-tetraazahentriacontane-1,31-diyl)bis(4,5-dihydroxy-6-(hydroxymethyl)tetrahydro-2H-pyran-2,3-diyl))diacetamide] | 44.1 | 159.1 | 4.1 | 2.1 | 4.2 | 1.0 | 27.4 | 2.0 | 2.4
6 | CCC[C@H]1O[C@H](CO)[C@H](O)[C@H](O)[C@H]1Nc1nccc(OCCOCCOCCNC(=O)NCCCC(CCCNC(=O)NCCOCCOCCOc2ccnc(N[C@@H]3[C@@H](O)[C@@H](O)[C@@H](CO)O[C@@H]3CCC)n2)(CCCNC(=O)NCCOCCOCCOc2ccnc(N[C@@H]3[C@@H](O)[C@@H](O)[C@@H](CO)O[C@@H]3CCC)n2)NC(=O)CCOCCOCCOCCNS(=O)(=O)c2ccc(N3C(=O)C=CC3=O)cc2)n1 [Compound 2330] | 54.5 | 166.6 | 8.1 | 2.4 | 2.8 | 1.1 | 42.9 | 2.9 | 3.0
7 | CCC[C@H]1O[C@H](COC)[C@H](O)[C@H](O)[C@H]1Nc1nccc(OCCOCCOCCNC(=O)NCCCC(CCCNC(=O)NCCOCCOCCOc2ccnc(N[C@@H]3[C@@H](O)[C@@H](O)[C@@H](COC)O[C@@H]3CCC)n2)(CCCNC(=O)NCCOCCOCCOc2ccnc(N[C@@H]3[C@@H](O)[C@@H](O)[C@@H](COC)O[C@@H]3CCC)n2)NC(=O)CCOCCOCCOCCNS(=O)(=O)c2ccc(N3C(=O)C=CC3=O)cc2)n1 [Compound 2326] | 89.7 | 287.9 | 17.2 | 3.7 | 9.0 | 1.1 | 57.7 | 4.1 | 4.1
